Where a name gives a salt, the structure may show the parent alone.
How the values were obtained:
[1] = molecular target: T1, fusion protein Tel/PDGF-R beta (PDGF beta receptor) in BaF/3 cells (Homo sapiens, UniProt P09619); assay: Inhibition of proliferation of BaF3 Tel/PDGF cells (tyrosine kinase activity of PDGF-R beta), CellTiter-Glo, 72 h; assay type: cell-based, murine; conditions: 72 h incubation, cellular ATP, read-out: IC50 (concentration that inhibits 50% of the proliferation of Baf3 tel/PDGF cells)
T1 construct: the transmembrane and intracellular part of the PDGF-R beta receptor; expressed in transfected cells; host or cells: murine haematopoietic cell line BaF/3; the other entry of the earlier key: ETV6 (P41212, Transcription factor ETV6)
T1 sequence (P09619 with tags, fused parts or gaps): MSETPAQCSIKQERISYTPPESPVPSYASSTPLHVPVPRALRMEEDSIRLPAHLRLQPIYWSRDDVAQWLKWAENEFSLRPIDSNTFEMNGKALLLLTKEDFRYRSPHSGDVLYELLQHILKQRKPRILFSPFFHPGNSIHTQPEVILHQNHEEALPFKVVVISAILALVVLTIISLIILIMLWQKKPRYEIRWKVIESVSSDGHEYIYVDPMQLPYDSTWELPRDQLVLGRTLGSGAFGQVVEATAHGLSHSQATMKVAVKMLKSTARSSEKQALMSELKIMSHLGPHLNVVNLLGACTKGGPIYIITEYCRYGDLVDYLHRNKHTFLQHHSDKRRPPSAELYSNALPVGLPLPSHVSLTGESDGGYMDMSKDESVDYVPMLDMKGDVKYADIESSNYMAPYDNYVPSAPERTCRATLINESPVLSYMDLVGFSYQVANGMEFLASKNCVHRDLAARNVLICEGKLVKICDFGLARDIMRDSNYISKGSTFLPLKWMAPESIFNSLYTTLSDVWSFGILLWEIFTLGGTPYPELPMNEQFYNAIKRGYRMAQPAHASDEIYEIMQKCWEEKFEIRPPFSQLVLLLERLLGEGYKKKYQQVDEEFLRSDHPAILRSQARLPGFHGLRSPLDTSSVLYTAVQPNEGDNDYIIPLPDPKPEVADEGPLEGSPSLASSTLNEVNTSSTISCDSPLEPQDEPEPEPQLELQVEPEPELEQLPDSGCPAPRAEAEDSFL
Source text: (§1) The inhibitory activity with respect to PDGF or Flt-3 receptors is given by the concentration that inhibits 50% of the proliferation activity of cells Baf3 tel/PDGF or MV4-11, respectively.
Measurement of Inhibition of the Tyrosine Kinase Activity of the Receptor to PDGF Beta (PDGF-Rβ) (Baf-3 tel/PDGFRβ):
This test consists of evaluating the effects of the compounds on the tyrosine kinase activity of the PDGF beta receptor.
The inhibitory effect of the compounds according to the invention on the tyrosine kinase activity of the PDGF-R receptor was evaluated on the murine haematopoietic cell line BaF/3 transfected with a plasmid coding for the fusion protein Tel/PDGF-R beta. This fusion protein is found in chronic myeloid myelomonocytic leukaemias (CMML). It comprises the N-terminal part of the transcription factor Tel and the transmembrane and intracellular part of the PDGF-R beta receptor. This fusion protein is present in dimerized form (presence of an oligomerization domain in the N-terminal part of Tel) and accordingly leads to the constitutive activity of the kinase domain of PDGF-R beta.
(§2) The BaF3 Tel/PDGF cells are washed with phosphate buffer and seeded in 96-well plates, at a density of 5.10^4 cells/ml (100 ml per well), in RPMI 1640 containing 10% of FCS, in the presence or absence of the test compounds. After incubation for 72 h, the viable cells are quantified by measurement of cellular ATP using the CellTiter-Glo® kit (Promega, Cat G7571). The cells are treated according to the instructions given by the supplier of the kit and the luminescence is measured with a Luminoskan (Ascent, Labsystem) with the following parameters: measurement: single; integration time: 1000 ms, lag time: 5 s.
It thus appears that the compounds according to the invention have an inhibitory activity on the tyrosine kinase activity of PDGF-R beta. This activity is given by the concentration that inhibits 50% of the proliferation of Baf3 tel/PDGF cells (IC50).

[2] = molecular target: T2, Flt-3 receptor (constitutively active mutant Flt3ITD, MV4-11 cell line) (Homo sapiens, UniProt P36888, INS600HVDFREYEYD); assay: Inhibition of proliferation of MV4-11 cells (tyrosine kinase activity of Flt-3 receptor), CellTiter-Glo, 72 h; assay type: cell-based; conditions: 72 h incubation, cellular ATP, read-out: IC50 (concentration that inhibits 50% of the proliferation of the MV4-11 cells)
T2 construct: bearing a constitutively active mutant Flt3ITD; endogenous in cells; host or cells: MV4-11
T2 sequence (P36888 with tags, fused parts or gaps INS600HVDFREYEYD): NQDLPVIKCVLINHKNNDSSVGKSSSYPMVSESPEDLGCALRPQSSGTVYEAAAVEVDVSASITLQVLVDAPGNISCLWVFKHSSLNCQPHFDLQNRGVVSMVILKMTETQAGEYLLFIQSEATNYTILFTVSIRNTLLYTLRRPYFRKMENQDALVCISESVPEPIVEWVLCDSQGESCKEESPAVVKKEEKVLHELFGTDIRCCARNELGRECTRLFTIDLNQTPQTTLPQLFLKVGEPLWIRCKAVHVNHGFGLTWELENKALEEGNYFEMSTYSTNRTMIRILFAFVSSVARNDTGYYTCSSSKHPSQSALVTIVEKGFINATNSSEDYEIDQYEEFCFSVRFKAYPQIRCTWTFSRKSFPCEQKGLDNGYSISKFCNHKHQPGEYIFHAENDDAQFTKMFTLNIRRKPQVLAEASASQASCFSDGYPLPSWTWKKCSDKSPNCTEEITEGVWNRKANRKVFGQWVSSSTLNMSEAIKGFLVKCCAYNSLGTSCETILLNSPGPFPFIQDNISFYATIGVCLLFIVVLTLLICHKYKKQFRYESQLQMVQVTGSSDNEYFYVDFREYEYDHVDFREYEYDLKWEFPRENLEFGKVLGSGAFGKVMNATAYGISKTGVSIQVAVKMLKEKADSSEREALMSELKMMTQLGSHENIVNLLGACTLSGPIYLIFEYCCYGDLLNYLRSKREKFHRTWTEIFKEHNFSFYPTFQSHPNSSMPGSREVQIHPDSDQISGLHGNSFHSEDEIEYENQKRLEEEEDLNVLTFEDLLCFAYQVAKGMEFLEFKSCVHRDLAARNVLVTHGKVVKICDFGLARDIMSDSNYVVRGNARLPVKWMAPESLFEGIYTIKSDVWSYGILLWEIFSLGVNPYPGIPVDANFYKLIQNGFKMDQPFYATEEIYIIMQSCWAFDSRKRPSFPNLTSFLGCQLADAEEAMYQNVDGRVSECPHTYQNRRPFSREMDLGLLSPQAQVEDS
Experimental: as §1
Measurement of Inhibition of the Tyrosine Kinase Activity of the Flt-3 Receptor
The inhibitory effect of the compounds according to the invention on the tyrosine kinase activity of the Flt-3 receptor was evaluated on the MV4-11 cell line, a line established from a leukaemia of the AML type and bearing a constitutively active mutant Flt3ITD. The inhibitory activity is correlated with inhibition of cell growth, according to the protocols described by SPIEKERMANN, K. et al., Blood, 2003, 101, (4) 1494-1504 and O'FARRELL, A.-M. et al., Blood, 2003, 101, (9) 3597-3605.
as §2, with “The MV4-11” for “The BaF3 Tel/PDGF”, “with PBS” for “with phosphate”, “of 1.10^5” for “of 5.10^4”, “(100 μl” for “(100 ml”, “h,” for “h, the”, “measured using” for “measured with”
The inhibitory activity with respect to the Flt-3 receptor is given by the concentration that inhibits 50% of the proliferation of the MV4-11 cells.

Structure (SMILES) | melting point [°C] | IC50 [1] [nM] | other results
CCn1c(N)c(-c2ncc[nH]2)c(=O)c2ccc(-c3ccc(CC(=O)Nc4ccccn4)cn3)nc21 (as salt: HCl) [Compound 2, 2-{6-[7-Amino-8-ethyl-6-(1H-imidazol-2-yl)-5-oxo-5,8-dihydro-[1,8]naphthyridin-2-yl]-pyridin-3-yl}-N-pyridin-2-yl-acetamide] | 200 | – | –
CCn1c(N)c(-c2ncc[nH]2)c(=O)c2ccc(-c3ccc(CC(=O)NCC4COCCN4C4CC4)cc3)nc21 (stereo not shown) (as salt: HCl) [Compound 3, 2-{4-[7-Amino-8-ethyl-6-(1H-imidazol-2-yl)-5-oxo-5,8-dihydro-[1,8]naphthyridin-2-yl]-phenyl}-N-(4-cyclopropyl-morpholin-3-ylmethyl)-acetamide] | 210 | – | –
CCn1c(N)c(-c2ncc[nH]2)c(=O)c2ccc(-c3ccc(CC(=O)Nc4ccccn4)cn3)nc21 [Compound 2, 2-{6-[7-Amino-8-ethyl-6-(1H-imidazol-2-yl)-5-oxo-5,8-dihydro-[1,8]naphthyridin-2-yl]-pyridin-3-yl}-N-pyridin-2-yl-acetamide] | – | 7.9 | –
CCN1CCCC1CNC(=O)Cc1ccc(-c2ccc3c(=O)c(-c4ncc[nH]4)c(N)n(CC)c3n2)c(C)c1 (stereo not shown) [Compound 9, 2-{4-[7-Amino-8-ethyl-6-(1H-imidazol-2-yl)-5-oxo-5,8-dihydro-[1,8]naphthyridin-2-yl]-3-methyl-phenyl}-N-(1-ethyl-pyrrolidin-2-ylmethyl)-acetamide] | – | 9.8 | –
CCn1c(N)c(-c2ncc[nH]2)c(=O)c2ccc(-c3ccc(CC(=O)Nc4ccc(C)nc4)cc3)nc21 [Compound 10, 2-{4-[7-Amino-8-ethyl-6-(1H-imidazol-2-yl)-5-oxo-5,8-dihydro-[1,8]naphthyridin-2-yl]-phenyl}-N-(6-methyl-pyridin-3-yl)-acetamide] | – | 2.5 | –
CCn1c(N)c(-c2ncc[nH]2)c(=O)c2ccc(-c3ccc(CC(=O)Nc4nnc(C)s4)cc3)nc21 [Compound 14, 2-{4-[7-Amino-8-ethyl-6-(1H-imidazol-2-yl)-5-oxo-5,8-dihydro-[1,8]naphthyridin-2-yl]-phenyl}-N-(5-methyl-[1,3,4]thiadiazol-2-yl)-acetamide] | – | 2.4 | –
CCn1c(N)c(-c2ncc[nH]2)c(=O)c2ccc(-c3ccc(CC(=O)Nc4ncc(Cl)s4)cc3)nc21 [Compound 26, 2-{4-[7-Amino-8-ethyl-6-(1H-imidazol-2-yl)-5-oxo-5,8-dihydro-[1,8]naphthyridin-2-yl]-phenyl}-N-(5-chloro-thiazol-2-yl)-acetamide] | – | – | IC50 [2]: 95 nM
CCn1c(N)c(-c2ncc[nH]2)c(=O)c2ccc(-c3ccc(C(C)C(=O)NCc4ccncc4)cc3)nc21 (stereo not shown) [Compound 47, 2-{4-[7-Amino-8-ethyl-6-(1H-imidazol-2-yl)-5-oxo-5,8-dihydro-[1,8]naphthyridin-2-yl]-phenyl}-N-pyridin-4-ylmethyl-propionamide] | 186 | – | –

More lines, main results first:

melting point [°C] | IC50 [1] [nM] | Structure (SMILES) | other results
118 | – | Nc1c(-c2ncc[nH]2)c(=O)c2ccc(-c3ccc(CC(=O)NCc4ccncc4)cc3)nc2n1CC1CC1 (as salt: TFA) [Compound 51, 2-{4-[7-Amino-8-cyclopropylmethyl-6-(1H-imidazol-2-yl)-5-oxo-5,8-dihydro-[1,8]naphthyridin-2-yl]-phenyl}-N-pyridin-4-ylmethyl-acetamide] | –
120 | – | CCn1c(N)c(-c2ncc[nH]2)c(=O)c2ccc(-c3ccc(CC(=O)NCc4ccncc4)nc3)nc21 (as salt: TFA) [Compound 53, 2-{5-[7-Amino-8-ethyl-6-(1H-imidazol-2-yl)-5-oxo-5,8-dihydro-[1,8]naphthyridin-2-yl]-pyridin-2-yl}-N-pyridin-4-ylmethyl-acetamide] | –
144 | – | CCn1c(N)c(-c2nc(C)c[nH]2)c(=O)c2ccc(-c3ccc(CC(=O)NCc4ccncc4)cc3)nc21 (as salt: salt) [Compound 50, 2-{4-[7-Amino-8-ethyl-6-(4-methyl-1H-imidazol-2-yl)-5-oxo-5,8-dihydro-[1,8]naphthyridin-2-yl]-phenyl}-N-pyridin-4-ylmethyl-acetamide] | –
240 | – | CCn1c(N)c(-c2ncc[nH]2)c(=O)c2ccc(-c3ccc(CCCC(=O)NCc4ccncc4)cc3)nc21 [Compound 49, 4-{4-[7-Amino-8-ethyl-6-(1H-imidazol-2-yl)-5-oxo-5,8-dihydro-[1,8]naphthyridin-2-yl]-phenyl}-N-pyridin-4-ylmethyl-butyramide] | –
– | 8.9 | Nc1c(-c2ncc[nH]2)c(=O)c2ccc(-c3ccc(CC(=O)NCc4ccncc4)cc3)nc2n1CC1CC1 [Compound 51, 2-{4-[7-Amino-8-cyclopropylmethyl-6-(1H-imidazol-2-yl)-5-oxo-5,8-dihydro-[1,8]naphthyridin-2-yl]-phenyl}-N-pyridin-4-ylmethyl-acetamide] | –
– | 13.6 | Nc1c(-c2ncc[nH]2)c(=O)c2ccc(-c3ccc(CC(=O)NCc4ccncc4)cc3)nc2n1C1CCCC1 [Compound 52, 2-{4-[7-Amino-8-cyclopentyl-6-(1H-imidazol-2-yl)-5-oxo-5,8-dihydro-[1,8]naphthyridin-2-yl]-phenyl}-N-pyridin-4-ylmethyl-acetamide] | –
– | 5.9 | CCn1c(N)c(-c2ncc[nH]2)c(=O)c2ccc(-c3ccc(CC(=O)NCCCc4ccccc4)cc3)nc21 [Compound 55, 2-{4-[7-Amino-8-ethyl-6-(1H-imidazol-2-yl)-5-oxo-5,8-dihydro-[1,8]naphthyridin-2-yl]-phenyl}-N-(3-phenyl-propyl)-acetamide] | –
100 | – | CCN1CCCC1CNC(=O)Cc1ccc(-c2ccc3c(=O)c(-c4ncc[nH]4)c(N)n(CC)c3n2)cc1F (stereo not shown) [Compound 56, 2-{4-[7-Amino-8-ethyl-6-(1H-imidazol-2-yl)-5-oxo-5,8-dihydro-[1,8]naphthyridin-2-yl]-2-fluoro-phenyl}-N-(1-ethyl-pyrrolidin-2-ylmethyl)-acetamide] | –
